The results in this text go back to patent publication US20250122207A1, “AP2 ASSOCIATED KINASE 1 INHIBITORS AND USES THEREOF” (Satellos Bioscience Inc., priority 2023, published 2025).

The target in assay [1] is T1, AAK1 (amino acids T27-A365) (Homo sapiens, UniProt Q2M2I8).
T1 construct: against AAK1 (amino acids T27-A365); 6His (N, cleaved yes)
Nature of the assay: AAK1 pSENs assay. The format is biochemical. Put shortly:
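Biotinylated, tag-free AAK1 T27-A365 expressed in E. coli was held at 20 nM in enzyme solution (HEPES pH 7.5, 10 mM MgCl2, DTT, EGTA, Brij35, BSA) and preincubated with compound for 15 min at 25 °C. The reaction was started with an equal volume of substrate solution containing 30 uM AQT0759 peptide and 70 uM ATP. IC50 determined.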

Assay [2] concerns the target AAK1 (Homo sapiens, UniProt Q2M2I8). Nature of the assay: pAP2M1 cell-based assay (in-cell Western). The source says:
pAP2M1 Cell-Based Assay (in-Cell Western):
The plate was read on Licor Odyssey CLx imaging system (LICOR) to acquire fluorescence intensity at 700 channel and 800 channel.
Data analysis: Fluorescence intensity at 700 channel served as internal standard and 800 channel were normalized with 700 channel.

Assay [3] deals with T2, BIKE (amino acids S38-E345) (K320A, K321A) (Homo sapiens, UniProt Q9NSY1, K320A/K321A).
T2 construct: against BIKE (amino acids S38-E345) (K320A, K321A); 6His (N, cleaved yes)
Nature of the assay: BIKE pSENs assay. It counts as biochemical. In a few lines:
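E. coli-expressed, biotinylated, tag-free BIKE at 20 nM in HEPES pH 7.5 buffer with 10 mM MgCl2 preincubated with compound 15 min at 25° C. Reaction started with 30 uM AQT0759 sensor peptide and 40 uM ATP (concentrations before 1:1 mixing).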

Assay [4] deals with T3, GAK (amino acids Q25-N335) (Homo sapiens, UniProt O14976).
T3 construct: against GAK (amino acids Q25-N335); 6His (N, cleaved yes)
T3 sequence (O14976 25-335): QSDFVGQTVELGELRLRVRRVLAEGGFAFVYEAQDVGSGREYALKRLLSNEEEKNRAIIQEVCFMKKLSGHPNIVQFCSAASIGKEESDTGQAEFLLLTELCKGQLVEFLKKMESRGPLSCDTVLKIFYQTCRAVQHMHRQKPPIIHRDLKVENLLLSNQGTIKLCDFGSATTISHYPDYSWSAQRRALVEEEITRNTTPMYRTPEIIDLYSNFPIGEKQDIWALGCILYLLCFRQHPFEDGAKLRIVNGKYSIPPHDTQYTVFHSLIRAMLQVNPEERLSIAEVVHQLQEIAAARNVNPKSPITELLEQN
Nature of the assay: GAK pSENs assay. It counts as biochemical. As to the method: The recombinant proteins were independently expressed in Escherichia coli BL21(DE3) cells cultured in Luria-Bertani (LB) medium until OD600 reached 0.6-0.8, then cooled to 15° C. and supplemented with 0.5 mM isopropyl 1-thio-D-galactopyranoside (IPTG) induce protein expression 16 h. Cells were harvested and resuspended in lysis buffer (50 mM HEPES pH 7.5, 500 mM NaCl, 5 mM imidazole, 5% glycerol, 0.5 mM Tris (2-carboxyethyl) phosphine (TCEP), cOmplete Protease Inhibitor Tablet (Roche)) and lysed by microfludics high pressure homogenizer (UH-06, Union-Biotech). Proteins were purified using […] chromatography (His FF column, Bestchrom) and eluted stepwise in binding buffer with 20-300 mM imidazole. Removal of the hexahistidine tag was performed at 4° C. overnight using recombinant TEV protease and reacted with BirA to obtain the corresponding biotinylated-AAK1, BIKE or GAK proteins. Further separated in the reverse Strep column (Strep-Tactin® XT, IBA). The Biotin elution sample was collected containing untagged biotinylated protein was then purified by Ion-exchange chromatography (Mono Q 10/100 GL, Cytiva) and Size-exclusion chromatography (HiLoad 16/600 Superdex 200 pg, Cytiva). The pure protein was stored in a storage buffer 50 mM HEPES (pH 7.5), 300 mM NaCl, 5% glycerol at −80° C. Protein were characterized by SDS-PAGE, LC-MS and aSEC.
This example describes one illustrative method for determining the IC50 of the compounds of the present invention against GAK (amino acids Q25-N335).

Setting [5] is: class symbols, read-out: AAK1 pSENs: EIC50.
Where [6] appears, read: Hela cells co-transfected with AP2M1 and AAK1, 3 hr treatment, class symbols, read-out: AAK1 In-cell Western: IC50.
The mark [7] stands for this setting: class symbols, read-out: BIKE pSENs: IC50.
Where [8] appears, read: class symbols, read-out: GAK pSENs:IC50.

Like-named read-outs stand apart in the source and are kept apart here.

Sequence of AAK1 (Q2M2I8 whole entry): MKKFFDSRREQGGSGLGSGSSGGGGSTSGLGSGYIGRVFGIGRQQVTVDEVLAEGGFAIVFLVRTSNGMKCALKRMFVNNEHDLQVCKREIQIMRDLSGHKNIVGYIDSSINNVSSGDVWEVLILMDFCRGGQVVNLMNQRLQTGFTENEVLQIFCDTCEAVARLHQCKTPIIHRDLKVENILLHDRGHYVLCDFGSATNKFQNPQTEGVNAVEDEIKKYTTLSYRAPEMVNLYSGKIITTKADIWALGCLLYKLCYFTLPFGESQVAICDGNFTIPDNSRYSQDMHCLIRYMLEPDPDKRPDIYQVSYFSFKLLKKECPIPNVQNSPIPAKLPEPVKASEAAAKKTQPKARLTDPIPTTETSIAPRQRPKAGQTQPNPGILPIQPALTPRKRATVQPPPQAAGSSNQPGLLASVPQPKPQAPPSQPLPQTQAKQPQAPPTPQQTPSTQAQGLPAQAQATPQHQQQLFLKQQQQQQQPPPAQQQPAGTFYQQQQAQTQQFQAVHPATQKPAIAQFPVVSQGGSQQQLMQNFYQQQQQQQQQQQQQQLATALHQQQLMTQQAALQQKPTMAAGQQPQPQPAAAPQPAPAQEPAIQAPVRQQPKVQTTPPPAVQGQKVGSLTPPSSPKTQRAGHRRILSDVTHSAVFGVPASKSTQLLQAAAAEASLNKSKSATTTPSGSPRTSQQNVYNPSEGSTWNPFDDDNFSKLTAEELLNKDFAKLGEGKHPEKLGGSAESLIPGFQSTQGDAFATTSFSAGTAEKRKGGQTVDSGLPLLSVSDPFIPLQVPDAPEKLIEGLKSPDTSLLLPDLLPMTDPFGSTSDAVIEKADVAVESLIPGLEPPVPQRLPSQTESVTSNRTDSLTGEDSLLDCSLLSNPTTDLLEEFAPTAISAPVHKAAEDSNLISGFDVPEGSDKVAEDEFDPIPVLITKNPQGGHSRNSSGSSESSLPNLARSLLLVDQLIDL
T1 sequence (Q2M2I8 27-365): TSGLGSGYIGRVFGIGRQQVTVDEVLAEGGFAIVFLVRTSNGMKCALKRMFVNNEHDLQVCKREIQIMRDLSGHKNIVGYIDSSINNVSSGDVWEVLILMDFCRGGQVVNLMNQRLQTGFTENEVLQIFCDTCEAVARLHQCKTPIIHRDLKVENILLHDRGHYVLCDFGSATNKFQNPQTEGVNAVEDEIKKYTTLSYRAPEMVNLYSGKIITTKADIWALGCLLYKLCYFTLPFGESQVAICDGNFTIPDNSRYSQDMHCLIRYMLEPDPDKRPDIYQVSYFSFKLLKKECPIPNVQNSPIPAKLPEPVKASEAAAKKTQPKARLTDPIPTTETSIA
T2 sequence (Q9NSY1 38-345 K320A/K321A): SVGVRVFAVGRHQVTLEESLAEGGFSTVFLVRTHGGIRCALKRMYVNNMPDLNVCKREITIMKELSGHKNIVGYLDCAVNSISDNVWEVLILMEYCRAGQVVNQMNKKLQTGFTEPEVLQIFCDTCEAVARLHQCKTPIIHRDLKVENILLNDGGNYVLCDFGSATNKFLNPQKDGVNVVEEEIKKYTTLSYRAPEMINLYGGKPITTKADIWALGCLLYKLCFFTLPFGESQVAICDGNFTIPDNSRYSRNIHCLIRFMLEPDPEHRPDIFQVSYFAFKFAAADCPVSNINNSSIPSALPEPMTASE

Regarding `C[C@@]1(OC(=O)N2CCN(c3ccn4ncc(-c5cccnc5OC5CC5)c4n3)CC2)CCN(CC(N)=O)C1` [Compound I-51, (R)-1-(2-amino-2-oxoethyl)-3-(methylpyrrolidin-3-yl)-4-(3-(2-cyclopropoxypyridin-3-yl)pyrazolo[1,5-a]pyrimidin-5-yl)piperazine-1-carboxylate], the IC50 in assay [1] (setting [5]) was 1 to 50 nM; in assay [2] (setting [6]) it was 151 to 500 nM; in assay [3] (setting [7]) it was 501 to 1500 nM; in assay [4] (setting [8]) it was 501 to 1500 nM.
`CN1C[C@@H](OC(=O)N2CCN(c3ccn4nccc4n3)CC2)CC1=O` [Compound I-97, [(3S)-1-methyl-5-oxo-pyrrolidin-3-yl]-4-pyrazolo[1,5-a]pyrimidin-5-ylpiperazine-1-carboxylate]: the IC50 in assay [1] (setting [5]), in assay [2] (setting [6]), in assay [3] (setting [7]) and in assay [4] (setting [8]) was above 1500 nM each time.
For the compound `CC1(OC(=O)N2CCN(c3ccn4ncc(-c5ccc(C(N)=O)cc5)c4n3)CC2)COC1` [Compound I-3, (3-methyloxetan-3-yl)-4-[3-(4-carbamoylphenyl)pyrazolo[1,5-a]pyrimidin-5-yl]piperazine-1-carboxylate], the IC50 in assay [1] (setting [5]) was 1 to 50 nM; in assay [2] (setting [6]), 501 to 1500 nM; in assay [3] (setting [7]) it was 51 to 150 nM; in assay [4] (setting [8]), 501 to 1500 nM.
As to `CC(C)Oc1ncccc1-c1cnn2ccc(N3CCN(C(=O)O[C@]4(C)CCNC4)CC3)nc12` [Compound I-22, [(3R)-3-methylpyrrolidin-3-yl]4-[3-(2-isopropoxy-3-pyridyl)pyrazolo[1,5-a]pyrimidin-5-yl]piperazine-1-carboxylate], the IC50 in assay [1] (setting [5]) fell in the range of 1 to 50 nM; in assay [2] (setting [6]), 51 to 150 nM; in assay [3] (setting [7]) it was 51 to 150 nM; in assay [4] (setting [8]), 51 to 150 nM.
As for `Oc1ncccc1-c1cnn2ccc(N3CCNCC3)nc12` [Compound I-106, 3-(5-piperazin-1-ylpyrazolo[1,5-a]pyrimidin-3-yl)pyridin-2-ol], the IC50 in assay [1] (setting [5]) was 501 to 1500 nM; in assay [2] (setting [6]), above 1500 nM; in assay [3] (setting [7]) it was 151 to 500 nM; in assay [4] (setting [8]), above 1500 nM.
For `O=C1C[C@H](OC(=O)N2CCN(c3ccn4ncc(-c5cccnc5NC5CC5)c4n3)CC2)CN1` [Compound I-45, [(3S)-5-Oxopyrrolidin-3-yl]4-[3-[2-(cyclopropylamino)-3-pyridyl]pyrazolo[1,5-a]pyrimidin-5-yl]piperazine-1-carboxylate], the IC50 in assay [1] (setting [5]), in assay [2] (setting [6]), in assay [3] (setting [7]) and in assay [4] (setting [8]) was above 1500 nM throughout.
Regarding `CC(C)(C)OC(=O)N1CCN(c2ccn3ncc(Cl)c3n2)CC1` [Compound I-100, tert-butyl 4-(3-chloropyrazolo[1,5-a]pyrimidin-5-yl)piperazine-1-carboxylate], the IC50 in assay [1] (setting [5]) was 501 to 1500 nM; in assay [2] (setting [6]), above 1500 nM; in assay [3] (setting [7]), above 1500 nM; in assay [4] (setting [8]), above 1500 nM.
Turning to `C#CC1(OC(=O)N2CCN(c3ccn4ncc(-c5cccnc5OC)c4n3)CC2)CCNC1` (stereo not drawn) [Compound I-9, (3-Ethynylpyrrolidin-3-yl) 4-[3-(2-methoxy-3-pyridyl)pyrazolo[1,5-a]pyrimidin-5-yl]piperazine-1-carboxylate], the IC50 in assay [1] (setting [5]) lay within 1 to 50 nM; in assay [2] (setting [6]), 51 to 150 nM; in assay [3] (setting [7]), 1 to 50 nM; in assay [4] (setting [8]) it was 151 to 500 nM.
`CC(C)(C)OC(=O)N1CCN(c2ccn3ncc(-c4cccnc4O)c3n2)CC1` [Compound I-102, tert-butyl 4-[3-(2-hydroxy-3-pyridyl)pyrazolo[1,5-a]pyrimidin-5-yl]piperazine-1-carboxylate]: the IC50 was 1 to 50 nM in assay [1] (setting [5]), 501 to 1500 nM in assay [2] (setting [6]), 51 to 150 nM in assay [3] (setting [7]) and above 1500 nM in assay [4] (setting [8]).
In the case of `COc1ncccc1-c1cnn2ccc(N3CCN(C(=O)OC4(C)CCNC4)CC3)nc12` (stereo not drawn) [Compound I-8, (3-Methylpyrrolidin-3-yl)-4-[3-(2-methoxy-3-pyridyl)pyrazolo[1,5-a]pyrimidin-5-yl]piperazine-1-carboxylate], the IC50 in assay [1] (setting [5]) lay within 1 to 50 nM; in assay [2] (setting [6]) it was 1 to 50 nM; in assay [3] (setting [7]), 1 to 50 nM; in assay [4] (setting [8]), 151 to 500 nM.
With `CN1C[C@@H](OC(=O)N2CCN(c3ccn4ncc(-c5cccnc5O)c4n3)CC2)CC1=O` [Compound I-98, [(3S)-1-methyl-5-oxo-pyrrolidin-3-yl]-4-[3-(2-hydroxy-3-pyridyl)pyrazolo[1,5-a]pyrimidin-5-yl]piperazine-1-carboxylate], the IC50 in assay [1] (setting [5]) is 151 to 500 nM; in assay [2] (setting [6]), above 1500 nM; in assay [3] (setting [7]), 501 to 1500 nM; in assay [4] (setting [8]), above 1500 nM.
Turning to `CC1(OC(=O)N2CCN(c3ccn4ncc(-c5cccc(C(N)=O)c5)c4n3)CC2)COC1` [Compound I-4, (3-methyloxetan-3-yl)-4-[3-(3-carbamoylphenyl)pyrazolo[1,5-a]pyrimidin-5-yl]piperazine-1-carboxylate], the IC50 in assay [1] (setting [5]) lay within 51 to 150 nM; in assay [2] (setting [6]), 501 to 1500 nM; in assay [3] (setting [7]) it was 501 to 1500 nM; in assay [4] (setting [8]), 501 to 1500 nM.
On to `CN1C[C@@H](OC(=O)N2CCN(c3ccn4ncc(Cl)c4n3)CC2)CC1=O` [Compound I-96, [(3S)-1-methyl-5-oxo-pyrrolidin-3-yl]-4-(3-chloropyrazolo[1,5-a]pyrimidin-5-yl)piperazine-1-carboxylate], for which the IC50 in assay [1] (setting [5]), in assay [2] (setting [6]), in assay [3] (setting [7]) and in assay [4] (setting [8]) was above 1500 nM in each case.
On to `CN(CCNc1ccn2ncc(-c3cccnc3OC3CC3)c2n1)C(=O)O[C@]1(C)CCNC1` [Compound I-61, (R)-3-methylpyrrolidin-3-yl (2-((3-(2-cyclopropoxypyridin-3-yl)pyrazolo[1,5-a]pyrimidin-5-yl)amino)ethyl)(methyl)carbamate], for which the IC50 was 1 to 50 nM in assay [1] (setting [5]), 501 to 1500 nM in assay [2] (setting [6]), 51 to 150 nM in assay [3] (setting [7]) and 151 to 500 nM in assay [4] (setting [8]).
For the compound `Brc1cnn2ccc(N3CCNCC3)nc12` [Compound I-103, 3-bromo-5-piperazin-1-yl-pyrazolo[1,5-a]pyrimidine], the IC50 in assay [1], in assay [2], in assay [3] and in assay [4] was above 1500 nM each time.
